Results on two compounds are retold here after US20070059720A9 (priority 2004, published 2007).

Test [1] deals with EBP50. The experiment in a line: Immunoblot of EBP50 in MCF-7 cells. Conditions: 24 hours. The format is cell-based, human. How it is done:
(§1) In Panel B, immunoprecipitation of E or T treated MCF-7 cells was performed followed by immunoblot analysis.

Test [2] relates to ezrin. The test is described as follows: Immunoblot of ezrin in MCF-7 cells. In kind it is cell-based, human. To be noted: 24 hours. As for the experimental part:
as §1
(Immunoblotting shows a protein as a band on a membrane.)

Test [3] deals with ERα. The experiment in a line: Immunoblot of ERα in T47D vector and MTA2 clones. The format is cell-based, human.
Test [4] relates to EBP50. The experiment in a line: Immunoblot of EBP50 in T47D vector and MTA2 clones. The format is cell-based, human.
The subject of test [5] is ER-positive tumors. To be noted: cited from earlier work.
Test [6] relates to cyclin D1 (CCND1). The test is described as follows: Immunoblot of CCND1 in MCF-7 transfectants. The format is cell-based, human. Conditions: MKP3 overexpressing cells; 2 hours. How it is done: Cells grown in 100 mm dishes were starved in phenol red-free (PRF), serum-free MEM (Specialty Media, Phillipsburg, N.J.) for 48 hours, and were then treated for 2 hours with vehicle (ethanol), estrogen (100 nM, 20), or OHT (100 nM). After treatment, cells were rinsed twice with ice-cold phosphate-buffered saline (PBS) and were then lysed immediately with 200 μl of cell lysis buffer (20 mM Tris HCl, pH 7.4, 150 mM NaCl, 1 mM B-glycerophosphate, 1 mM sodium orthovanadate, and 10% glycerol plus 1:100 proteinase inhibitor cocktail III) (Calbiochem, LaJolla, Calif.) per 100 mm tissue culture. The cell lysates were cleared by centrifugation at 16,100×g for 10 minutes at 4° C. Protein concentration was determined with the BCA Protein Assay kit (Pierce, Rockfold, Ill.) according to the manufacturer's directions. Equal amount of cell extracts were resolved under denaturing conditions by electrophoresis in 8-10% polyacrylamide gels containing sodium dodecyl sulfate (SDS-PAGE), and transferred to nitrocellulose membranes by electroblotting (Schleicher & Schuell, Keene, NH). […]
As expected with two hours of estrogen treatment, no induction of the two PR isoforms were detected in either the control vector (Con 1 and 2), or in the MKP3-transfected cells (FIG. 11A). […]

Test [7] deals with PR-B. The test is described as follows: PR ubiquitin assay. In kind it is cell-based, human. To be noted: 2 hrs in the presence of a proteasomal inhibitor. As for the experimental part: Cells were staved in PRF MEM for 24 hours, and then 2×10^6 cells were seeded into 100 mm tissue culture plates, and incubated for another 24 hours. Cells were transiently transfected with Fugene 6 reagent (Roche, Indianapolis, Ind.) following the manufacturer's protocol. Each plate was transfected with 1 μg pcDNA 3.1-PR-B (subcloned by BamHI digestion from pSG5-human PR-B clone (Richer et al., 1998) obtained from Dr. Kathryn Horwitz, University of Colorado Health Sciences Center, 1 μg MKP3-V5, and 3 μg pcDNA-HAUbiquitin (kindly provided by Dr. Xinhua Feng, Baylor College of Medicine). Twenty-four hours later, cells were switched to serum free, PRF MEM, incubated for another 24 hours. In some experiments were pretreated with the 50 μM MG-132 (Calbiochem, LaJolla, Calif.) for 2 hours, and then treated with vehicle (ethanol), estradiol (E2, 100 nM), or 4-OH-Tam (100 nM) for an additional 2 hours. Cells were then harvested in 1 ml cell lysis buffer supplemented with 50 μM MG-132. Cell lysates from each treatment were precleared with the addition of 50 μl 50% protein A slurry (Amersham), and immunoprecipitated with the addition of anti-PR antibodies C-19 and H190 (2 μg each), and 20 μl 50% protein A slurry. […]

For test [8], the system named is ERα. The experiment in a line: Transient transactivation assay with ERE-luciferase reporter. In kind it is cell-based. Conditions: U20S cells with exogenous ER or MCF-7 cells with endogenous ER; EBP50 expression. The text has this:
Transient transactivation assays with an ERE-luciferase reporter were utilized in U20S cells expressing exogenous ER (Panel A), or MCF-7 cells expressing endogenous ER (Panel B). ER activity was enhanced with EBP50 expression in the presence of estrogen.

[9] abbreviates: adjuvant therapy, patients with ER-positive tumors.

With `C[C@]12CC[C@@H]3c4ccc(O)cc4CC[C@H]3[C@@H]1CC[C@@H]2O` [E2, 17β-Estradiol], the values for the EBP50 levels result in test [1] and in test [4] were “similarly induced” and “increased”, respectively. The ezrin levels result in test [2] is given as “similarly induced”. For the same compound, in test [3], the ERα protein levels result is recorded as “decreased”.

Regarding `CC/C(=C(\c1ccccc1)c1ccc(OCCN(C)C)cc1)c1ccccc1` [Tam, tamoxifen], in test [5] (setting [9]), the 10-year recurrence risk entry was “halves” and the “reduction of the risk of death from metastatic disease” value is reported as 26%. In addition, the “share of patients with ER-positive disease who respond” value in test [5] (human, in vivo) was 60%. The CCND1 levels entry in test [6] is listed as “High levels”. In test [7], the “level of polyubiquitin-conjugated PR-B” value is reported as “increased”. In addition, in test [8], the “effect on ER activity (ERE-luciferase)” value was “antagonist and reversed estrogen's effects”.
